Read-outs that look alike come from different tables or passages of the source.
How the values were obtained:
BTK in RAMOS B cells = test: Assay to determine BTK activity in RAMOS B cells (anti-IgM, FLIPR Calcium 6); type: cell-based; settings: Homo sapiens, Ramos, anti-IgM EC80, calcium readout
BTK = biological target: T1, BTK (Homo sapiens, UniProt Q06187); test: Assay to determine activity against BTK; type: biochemical; settings: 1 mM ATP, 2 nM BTK, 90 minutes at room temperature
T1 construct: purchased Cama
T1 sequence (Q06187 whole entry): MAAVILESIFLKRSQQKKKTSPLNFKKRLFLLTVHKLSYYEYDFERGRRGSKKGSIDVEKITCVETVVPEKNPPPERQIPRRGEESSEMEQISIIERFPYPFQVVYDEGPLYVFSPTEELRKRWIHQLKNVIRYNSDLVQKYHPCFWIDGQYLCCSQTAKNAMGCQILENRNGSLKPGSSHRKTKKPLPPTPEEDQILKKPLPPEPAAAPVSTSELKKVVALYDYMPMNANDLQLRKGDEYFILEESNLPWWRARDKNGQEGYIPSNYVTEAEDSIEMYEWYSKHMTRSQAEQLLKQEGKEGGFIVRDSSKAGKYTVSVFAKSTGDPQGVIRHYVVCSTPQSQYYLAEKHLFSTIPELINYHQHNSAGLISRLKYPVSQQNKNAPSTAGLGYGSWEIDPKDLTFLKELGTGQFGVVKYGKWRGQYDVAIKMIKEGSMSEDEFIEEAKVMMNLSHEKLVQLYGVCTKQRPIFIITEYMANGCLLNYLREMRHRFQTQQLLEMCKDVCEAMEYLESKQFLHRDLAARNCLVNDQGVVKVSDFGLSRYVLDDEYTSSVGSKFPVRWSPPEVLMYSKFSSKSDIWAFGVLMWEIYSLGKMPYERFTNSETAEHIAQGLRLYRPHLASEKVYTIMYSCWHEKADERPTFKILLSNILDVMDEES
Procedure, shortened: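 Recombinant BTK (2 nM) was assayed with 1.5 µM FL-peptide and 1 mM ATP in pH 7.5 HEPES buffer with MgCl2, DTT, BSA and EGTA, for 90 min at room temperature before an EDTA stop. Peptide conversion ratio was read by mobility-shift, and IC50 came from 11-point 3-fold dilution curves.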

[1] = Plasma and total brain concentrations at 1 h post single oral administration to female C57BL/6 mice; type: in vivo; settings: mouse, 10 mg/kg oral gavage; for Kp at 1 h: brain/plasma, read-out: brain to plasma ratio
Protocol: The appropriate amount of test article was dissolved 10% dimethylacetamide (DMA)/90% (20% hydroxypropyl-β-cyclodextrin (HP-B-CD) w/v in water to obtain a final concentration of 1 mg/mL for oral dosing. Sonication, vortex, and homogenization was used as needed. Three female C57BL/6 mice aged 7-9 weeks (20-30 grams) were dosed by oral gavage 10 mg/kg solution of the test article.
Concentrations of test compounds in the plasma and brain samples (use plasma and brain homogenate standard curve for all samples appropriately) were analyzed using LC-MS/MS. Compounds having a brain-to-plasma ratio of greater than 0.2 were considered brain penetrant.

[2] = plasma, read-out: Mean [plasma]

Row | Structure (SMILES) | IC50 (BTK in RAMOS B cells) | IC50 (BTK) | concentration at 1 h ([1]; brain, read-out: Mean [brain]) | Kp at 1 h [1] | concentration at 1 h [1, 2]
1 | C=CC(=O)N1CCC[C@@H](c2cnc(C(N)=O)c3[nH]c4c(c23)CCCC4)C1 [Compound 2-4, (S)-4-(1-acryloylpiperidin-3-yl)-6,7,8,9-tetrahydro-5H-pyrido[3,4-b]indole-1-carboxamide] | < 10 nM | < 10 nM | 39 ng/g | 0.24 | 163 ng/mL
2 | C=CC(=O)N1CCC=C(c2c(F)cc(C(N)=O)c3[nH]c4c(c23)CCCCC4)C1 [Compound 5-4, 1-(1-acryloyl-1,2,5,6-tetrahydropyridin-3-yl)-2-fluoro-5,6,7,8,9,10-hexahydrocyclohepta[b]indole-4-carboxamide] | 10 to 100 nM | < 10 nM | 4 ng/g | 0.22 | 18 ng/mL
3 | C=CC(=O)N1CCc2c(cccc2-c2ccc(C(N)=O)c3[nH]c4c(c23)CC2(CC4)CC2)C1 [Compound 7-2, 5-(2-acryloyl-1,2,3,4-tetrahydroisoquinolin-5-yl)-1,2,4,9-tetrahydrospiro[carbazole-3,1′-cyclopropane]-8-carboxamide] | ≥ 100 nM | 10 to 100 nM | 43 ng/g | 0.39 | 109 ng/mL

Reference: patent publication US20220009920A1 (GB005, Inc., priority 2020, published 2022)
